From patent EP3928779A1 (Chugai Seiyaku Kabushiki Kaisha, priority 2014, dated 2016)

Test system: rat small-intestinal brush border membrane vesicles
Assay: Inhibitory effect on 33PO4 uptake into rat small-intestinal brush border membrane vesicles (rapid filtration method)
Assay type: biochemical
Settings: 33PO4 uptake into rat small-intestinal BBMVs; test compound 1 µM; reacted for 60 seconds
Protocol: Brush border membrane vesicles (BBMVs) were prepared using the upper region of the small intestine of each Wistar female rat (4-5 weeks old). […] The ^33PO4 transport activity of the small-intestinal BBMVs was determined by the rapid filtration method. […] Then, ice-cold buffer C (110 mM NaCl, 1 mM KH2PO4, and 10 mM HEPES (pH 7.5)) was added to each reaction mixture, which was immediately suctionfiltered through a Millipore filter. The filter was washed with buffer C, and each sample was then dissolved in a liquid scintillator. The amount of ^33PO4 uptake into BBMVs was measured using a liquid scintillation counter. […]

Compound | Rate of uptake inhibition (%) (1 µM)
1-[(2,3-Difluorophenyl)methyl]-4a-ethyl-4-hydroxy-N-[5-methyl-2-(trifluoromethyl)furan-3-yl]-2-oxo-5,6,7,8-tetrahydropyrido[1,2-b]pyridazine-3-carboxamide [Example 19] | 41
1-[(3-Fluorophenyl)methyl]-4-hydroxy-4a-methyl-N-[5-methyl-2-(trifluoromethyl)furan-3-yl]-2-oxo-5,6,7,8-tetrahydropyrido[1,2-b]pyridazine-3-carboxamide [Example 18] | 12
Cc1cc(NC(=O)C2=C(O)[C@@H]3CCCN3N(Cc3cccc(F)c3)C2=O)c(C(F)(F)F)o1 [Example 1, (4aS)-1-[(3-Fluorophenyl)methyl]-4-hydroxy-N-[5-methyl-2-(trifluoromethyl)furan-3-yl]-2-oxo-4a,5,6,7-tetrahydropyrrolo[1,2-b]pyridazine-3-carboxamide] | 28
Cc1cc(NC(=O)C2=C(O)[C@H]3CCCN3N(Cc3cccc(F)c3)C2=O)c(C(F)(F)F)o1 [Example 2, (4aR)-1-[(3-Fluorophenyl)methyl]-4-hydroxy-N-[5-methyl-2-(trifluoromethyl)furan-3-yl]-2-oxo-4a,5,6,7-tetrahydropyrrolo[1,2-b]pyridazine-3-carboxamide] | 19
Cc1cc(NC(=O)C2=C(O)[C@@H]3CC(C)(C)CN3N(Cc3cccc(F)c3)C2=O)c(C(F)(F)F)o1 [Example 3] | 11
Cc1cc(NC(=O)C2=C(O)[C@@H]3CCC(C)(C)N3N(Cc3cccc(F)c3)C2=O)c(C(F)(F)F)o1 [Example 4, (4aS)-1-[(3-Fluorophenyl)methyl]-4-hydroxy-7,7-dimethyl-N-[5-methyl-2-(trifluoromethyl)furan-3-yl]-2-oxo-5.6-dihydro-4aH-pyrrolo[1,2-b]pyridazine-3-carboxamide] | 32
COCCN(C)CCOc1ccc(CN2C(=O)C(C(=O)Nc3ccc(C(F)(F)F)cc3-c3cc(C(F)(F)F)ncn3)=C(O)C3(CCC3)N2C)c(F)c1F [Example 13, 6-[[2,3-Difluoro-4-[2-[2-methoxyethyl(methyl)amino]ethoxy]phenyl]methyl]-9-hydroxy-5-methyl-7-oxo-N-[4-(trifluoromethyl)-2-[6-(trifluoromethyl)pyrimidin-4-yl]phenyl]-5,6-diazaspiro[3.5]non-8-ene-8-carboxamide] | 58
Cc1cc(NC(=O)C2=C(O)[C@H]3CCCCN3N(Cc3cccc(F)c3)C2=O)c(C(F)(F)F)o1 [Example 15, (4aR)-1-[(3-Fluorophenyl)methyl]-4-hydroxy-N-[5-methyl-2-(trifluoromethyl)furan-3-yl]-2-oxo-5,6,7,8-tetrahydro-4aH-pyrido[1,2-b]pyridazine-3-carboxamide] | 42
C[C@]12CCCN1N(Cc1cccc(F)c1F)C(=O)C(C(=O)Nc1ccc(C(F)(F)F)cc1-c1cc(C(F)(F)F)ncn1)=C2O [Example 21, (4aR)-1-[(2,3-Difluorophenyl)methyl]-4-hydroxy-4a-methyl-2-oxo-N-[4-(trifluoromethyl)-2-[6-(trifluoromethyl)pyrimidin-4-yl]phenyl]-6,7-dihydro-5H-pyrrolo[1,2-b]pyridazine-3-carboxamide] | 61
Cc1c(C#N)ncnc1-c1cc(C(F)(F)F)ccc1NC(=O)C1=C(O)[C@@]2(C)CCCN2N(Cc2ccc(OCCN3CCOCC3)c(F)c2F)C1=O [Example 22, (4aR)-N-[2-(6-Cyano-5-methylpyrimidin-4-yl)-4-(trifluoromethyl)phenyl]-1-[[2,3-ditluoro-4-(2-morpholin-4-ylethoxy)phenyl]methyl]-4-hydroxy-4a-methyl-2-oxo-6,7-dihydro-5H-pyrrolo[1,2-b]pyridazine-3-carboxamide] | 50
C[C@]12CCCN1N(Cc1cccc(F)c1F)C(=O)C(C(=O)Nc1ccc(C(F)(F)F)cc1-c1ncnc(C#N)c1Cl)=C2O [Example 23] | 84
Cc1c(C#N)ncnc1-c1cc(C(F)(F)F)ccc1NC(=O)C1=C(O)[C@@]2(C)CCCN2N(Cc2cccc(F)c2F)C1=O [Example 24] | 76
COc1c(C#N)ncnc1-c1cc(C(F)(F)F)ccc1NC(=O)C1=C(O)[C@@]2(C)CCCN2N(Cc2cccc(F)c2F)C1=O [Example 25] | 82
CCCCCN1C(=O)C(C(=O)Nc2ccc(C(F)(F)F)cc2-c2ccc(C(F)(F)F)nc2)=C(O)[C@@]2(C)CCCN12 [Example 26] | 72
C[C@]12CCCN1N(Cc1cccc([N+](=O)[O-])c1)C(=O)C(C(=O)Nc1ccc(Br)c(F)c1)=C2O [Example 27] | 76
C[C@]12CCCN1N(Cc1cccc(F)c1F)C(=O)C(C(=O)Nc1ccc(Br)c(F)c1)=C2O [Example 28] | 72
C[C@]12CCCN1N(Cc1cccc(F)c1F)C(=O)C(C(=O)Nc1cc(F)c(Br)c(F)c1)=C2O [Example 29] | 75
CC1(C)CC[C@]2(C)C(O)=C(C(=O)Nc3cc(C(F)(F)F)ccc3-c3ccc(C(F)(F)F)nc3)C(=O)N(Cc3cccc(F)c3F)N12 [Example 63] | 72
C[C@]12CCCN1N(Cc1cccc(F)c1F)C(=O)C(C(=O)Nc1ccc(Br)cc1-c1cc(C(F)(F)F)ncn1)=C2O [Example 64] | 77
COC(=O)c1cccc(-c2cc(C(F)(F)F)ccc2NC(=O)C2=C(O)[C@@]3(C)CCCN3N(Cc3cccc(F)c3F)C2=O)c1OC [Example 65] | 98
CCOc1cccc(-c2cc(C(F)(F)F)ccc2NC(=O)C2=C(O)[C@@]3(C)CCCN3N(Cc3cccc(F)c3F)C2=O)c1OC [Example 66] | 96
C[C@]12CCCN1N(Cc1cccc(F)c1F)C(=O)C(C(=O)Nc1ccc(C(F)(F)F)cc1-c1cnc(Cl)nc1)=C2O [Example 67] | 91
C[C@]12CCCN1N(Cc1cccc(F)c1F)C(=O)C(C(=O)Nc1ccc(C(F)(F)F)cc1-c1cnc(Cl)c(C#N)c1)=C2O [Example 68, (4aR)-N-[2-(6-Chloro-5-cyanopyridin-3-yl)-4-(trifluoromethyl)phenyl]-1-[(2,3-difluorophenyl)methyl]-4-hydroxy-4a-methyl-2-oxo-6,7-dihydro-5H-pyrrolo[1,2-b]pyridazine-3-carboxamide] | 84
Cc1c(Cl)ncnc1-c1cc(C(F)(F)F)ccc1NC(=O)C1=C(O)[C@@]2(C)CCCN2N(Cc2cccc(F)c2F)C1=O [Example 69] | 74
C[C@]12CCCN1N(Cc1cccc(F)c1F)C(=O)C(C(=O)Nc1ccc(C(F)(F)F)cc1-c1ncnc(Cl)c1Cl)=C2O [Example 70] | 79
CN(C)S(=O)(=O)c1ccc(-c2cc(C(F)(F)F)ccc2NC(=O)C2=C(O)[C@@]3(C)CCCN3N(Cc3cccc(F)c3F)C2=O)s1 [Example 71] | 97
COc1ncc(-c2cc(C(F)(F)F)ccc2NC(=O)C2=C(O)[C@@]3(C)CCCN3N(Cc3cccc(F)c3F)C2=O)c(OC)n1 [Example 72] | 92
C[C@]12CCCN1N(Cc1cccc(F)c1F)C(=O)C(C(=O)Nc1ccc(C(F)(F)F)cc1-c1cnc(Br)cn1)=C2O [Example 73] | 74
